Measurements taken from patent US5149707A, “1-((2-fluorophenyl)(4-fluorophenyl)phenylmethyl)-1H-imidazole useful as antifungal agent” (J. Uriach & Cia, S.A., priority 1988, dated 1992).
Converted amounts (≈) assume the structure as drawn. Like-named read-outs stand apart in the source and are kept apart here.

Legend:
[1] = tested on: T. mentagrophytes (clinica) (3); assay: In vitro antifungal activity (MIC), agar dilution; assay type: cell-based; conditions: Trichophyton mentagrophytes
Experimental: (§1) The antifungal activity of 1-[(2-fluorophenyl)(4-fluorophenyl)phenylmethyl]-1H-imidazole was shown by its ability to inhibit the growth of different species of yeast and filamentous fungi in vitro. The activity was recorded as the MIC value, that is, the minimum amount of product needed to achieve the complete inhibition of the in vitro growth of the test organism. Testing was performed as follows: a solution of the antifungal agent in ethanol was diluted with DST agar (pH 6.5) or Emmon's Sabouraud dextrose agar to obtain concentrations between 10 and 0.01 mcg/ml, or 80 and 0.16 mcg/m, respectively. The inoculum was standarized in order 1×10^5 cfu/ml, and 10 mcl of each organism was seeded into the agar surface. Incubation was then allowed at 30° C. during 3 days (DST) or 2 days (Emmon's) for yeasts and 10 days for filamentous fungi. Following incubation, the zones of inhibition were measured and compared to an inoculated, drug-free control to yield the MIC value.

[2] = tested on: Microsporum audouini ATCC 9079; assay: In vitro antifungal activity (MIC), agar dilution; assay type: cell-based
Experimental: as §1

[3] = tested on: C. albicans serotipo B; assay: In vitro antifungal activity (MIC), agar dilution; assay type: cell-based; conditions: Candida albicans
Experimental: as §1

[4] = tested on: C. albicans serotipo A; assay: In vitro antifungal activity (MIC), agar dilution; assay type: cell-based
Experimental: as §1

[5] = tested on: T. mentagrophytes ATCC 9129; assay: In vitro antifungal activity (MIC), agar dilution; assay type: cell-based
Experimental: as §1

[6] = tested on: T. mentagrophytes (clinica) (2); assay: In vitro antifungal activity (MIC), agar dilution; assay type: cell-based; conditions: Trichophyton mentagrophytes
Experimental: as §1

[7] = tested on: Aspergillus fumigatus (1); assay: In vitro antifungal activity (MIC), agar dilution; assay type: cell-based
Experimental: as §1

[8] = tested on: C. albicans ATCC 10231; assay: In vitro antifungal activity (MIC), agar dilution; assay type: cell-based; conditions: Candida albicans
Experimental: as §1

[9] = tested on: Aspergillus niger; assay: In vitro antifungal activity (MIC), agar dilution; assay type: cell-based
Experimental: as §1

[10] = tested on: T. mentagrophytes (clinica) (4); assay: In vitro antifungal activity (MIC), agar dilution; assay type: cell-based; conditions: Trichophyton mentagrophytes
Experimental: as §1

[11] = tested on: T. mentagrophytes ATCC 9972; assay: In vitro antifungal activity (MIC), agar dilution; assay type: cell-based; conditions: Trichophyton mentagrophytes
Experimental: as §1

[12] = tested on: Microsporum canis (clinica); assay: In vitro antifungal activity (MIC), agar dilution; assay type: cell-based
Experimental: as §1

[13] = Pharmacokinetics; conditions: in words
[14] = tested on: mice; conditions: mouse, in vivo
[15] = Liposolubility (log P octanol-water); assay type: physicochemical
[16] = tested on: fungi (some species); assay: Preliminary tests of antifungal activity; assay type: cell-based
[17] = tested on: yeast and filamentous fungi; assay: Comparative antifungal tests of Examples 18 to 20; assay type: cell-based
Experimental: as §1, with “Incubation was then allowed at 30° C. during 3 days (DST) or 2 days (Emmon's) for yeasts and 10 days for filamentous fungi.” left out
The growth inhibition percentage of 5 different isolates on shake cultures was determined 24 h and 48 h after incubation at 28° C. […] The growth inhibition percentage was determined by spectrophotometry (450 nm). […]
The antifungal activity of 1-[(2-fluorophenyl)(4-fluorophenyl)phenylmethyl]-1H-imidazole and bifonazole was determined by serial dilutions in Sabouraud gentamycin broth using microplates. […] MIC's were determined as in example 18. […]

[18] = Tolerance (DL50) in mice; conditions: mouse, in vivo
[19] = Emmon's Sabouraud dextrose agar
[20] = ATCC9079, Emmon's Sabouraud dextrose agar
[21] = Emmon's Sabouraud dextrose agar, read-out: MIC

## c1ccc(-c2ccc(C(c3ccccc3)n3ccnc3)cc2)cc1 (stereo not shown) [Bifonazole, 1-[(4-biphenyl)-phenylmethyl]-1H-imidazole, reference compound]
[1]; DST agar
  MIC: 1 µg/mL (≈ 3.22 µM)
[1]; [19]
  MIC: 5 µg/mL (≈ 16.1 µM)
[2]; ATCC9079, DST agar
  MIC: 0.05 µg/mL (≈ 0.161 µM)
[2]; [20]
  MIC: 5 µg/mL (≈ 16.1 µM)
[3]; DST agar
  MIC: 10 µg/mL (≈ 32.2 µM)
[3]; [19]
  MIC: 20 µg/mL (≈ 64.4 µM)
[4]; Candida albicans
  MIC: 2.5 µg/mL (≈ 8.05 µM)
[4]; [19]
  MIC: 2.50 µg/mL (≈ 8.05 µM)
[5]; [19]
  MIC: 2.50 µg/mL (≈ 8.05 µM)
[5]; Trichophyton mentagrophytes, ATCC9129
  MIC: 2.5 µg/mL (≈ 8.05 µM)
[6]; DST agar
  MIC: 10 µg/mL (≈ 32.2 µM)
[6]; [19]
  MIC: 80 µg/mL (≈ 258 µM)
[7]; DST agar
  MIC: 0.1 µg/mL (≈ 0.322 µM)
[7]; [19]
  MIC: 0.31 µg/mL (≈ 0.999 µM)
[8]; ATCC10231, DST agar
  MIC: 1 µg/mL (≈ 3.22 µM)
[8]; ATCC10231, Emmon's Sabouraud dextrose agar
  MIC: 0.63 µg/mL (≈ 2.03 µM)
[9]; DST agar
  MIC: 0.1 µg/mL (≈ 0.322 µM)
[9]; [19]
  MIC: 2.5 µg/mL (≈ 8.05 µM)
[10]; DST agar
  MIC: 0.5 µg/mL (≈ 1.61 µM)
[10]; [19]
  MIC: 5 µg/mL (≈ 16.1 µM)
[11]; ATCC9972, DST agar
  MIC: 1 µg/mL (≈ 3.22 µM)
[11]; ATCC9972, Emmon's Sabouraud dextrose agar
  MIC: 5 µg/mL (≈ 16.1 µM)
[12]; DST agar
  MIC: 0.025 µg/mL (≈ 0.0805 µM)
[12]; [19]
  MIC: 2.5 µg/mL (≈ 8.05 µM)

## Fc1ccc(C(c2ccccc2)(c2ccccc2F)n2ccnc2)cc1 (stereo not shown) [UR-4056, 1-[(2-fluorophenyl) (4-fluorophenyl)phenylmethyl]-1H-imidazole]
[13]
  pharmacokinetics: appropiate pharmacokinetics
[14]
  tolerance: good tolerance
[15]; in words
  liposolubility: good liposolubility
[15]; octanol-water
  logP: 3.09
[1]; DST agar, read-out: MIC
  MIC: 0.25 µg/mL (≈ 0.722 µM)
[1]; [21]
  MIC: 0.16 µg/mL (≈ 0.462 µM)
[2]; ATCC9079, DST agar
  MIC: 0.05 µg/mL (≈ 0.144 µM)
[2]; [20]
  MIC: 0.63 µg/mL (≈ 1.82 µM)
[3]; DST agar, read-out: MIC
  MIC: 0.5 µg/mL (≈ 1.44 µM)
[3]; [21]
  MIC: 0.31 µg/mL (≈ 0.895 µM)
[4]; Candida albicans, DST agar, read-out: MIC
  MIC: 1 µg/mL (≈ 2.89 µM)
[4]; Candida albicans, Emmon's Sabouraud dextrose agar, read-out: MIC
  MIC: 1.25 µg/mL (≈ 3.61 µM)
[5]; Trichophyton mentagrophytes, ATCC9129, DST agar, read-out: MIC
  MIC: 0.05 µg/mL (≈ 0.144 µM)
[5]; Trichophyton mentagrophytes, ATCC9129, Emmon's Sabouraud dextrose agar, read-out: MIC
  MIC: 0.31 µg/mL (≈ 0.895 µM)
[6]; DST agar, read-out: MIC
  MIC: 10 µg/mL (≈ 28.9 µM)
[6]; [21]
  MIC: 40 µg/mL (≈ 115 µM)
[7]; DST agar, read-out: MIC
  MIC: 0.5 µg/mL (≈ 1.44 µM)
[7]; [21]
  MIC: 0.63 µg/mL (≈ 1.82 µM)
[8]; ATCC10231, DST agar, read-out: MIC
  MIC: 1 µg/mL (≈ 2.89 µM)
[8]; ATCC10231, Emmon's Sabouraud dextrose agar, read-out: MIC
  MIC: 0.04 µg/mL (≈ 0.115 µM)
[9]; DST agar
  MIC: 0.25 µg/mL (≈ 0.722 µM)
[9]; [19]
  MIC: 2.5 µg/mL (≈ 7.22 µM)
[10]; DST agar, read-out: MIC
  MIC: 0.1 µg/mL (≈ 0.289 µM)
[10]; [21]
  MIC: 1.25 µg/mL (≈ 3.61 µM)
[11]; ATCC9972, DST agar, read-out: MIC
  MIC: 0.25 µg/mL (≈ 0.722 µM)
[11]; ATCC9972, Emmon's Sabouraud dextrose agar, read-out: MIC
  MIC: 1.25 µg/mL (≈ 3.61 µM)
[12]; DST agar
  MIC: 0.025 µg/mL (≈ 0.0722 µM)
[12]; [19]
  MIC: 0.63 µg/mL (≈ 1.82 µM)
[16]
  antifungal activity: very good activity against some species
[17]
  potency compared with bifonazole: more potent than bifonazole in many instances
[18]
  LD50: 691 mg/kg
